Reference: patent US20150045266A1, “IONIC LIQUID AS LUBRICATING OIL BASE STOCKS, COBASE STOCKS AND MULTIFUNCTIONAL FUNCTIONAL FLUIDS” (ExxonMobil Research and Engineering Company, priority 2012, published 2015)

Assay: Solubility in di(tridecyl) adipate ester base stock (Esterex A51)
Format: physicochemical
Settings: Group V ester base stock
Excerpt: The ionic liquids of Examples 5, 7, 9, 11 and 13 have good viscosity index.

Structure (SMILES) | solubility in di(tridecyl) adipate ester base stocks
CCCCCCCCCCn1cc[n+](C)c1 [Example 5, 1-methyl-3-decylimidazolium bis(trifluoromethanesulfonyl)imide] | highly soluble
CCCCCCCCCCCCCCCCn1cc[n+](C)c1 [Example 7, 1-methyl-3-hexadecylimidazolium bis(trifluoromethanesulfonyl)imide] | highly soluble
CCCCCCCCCC[n+]1ccn(CCCC)c1 [Example 9, 1-butyl-3-decylimidazolium bis(trifluoromethanesulfonyl)imide] | highly soluble
CCCCCCCCCCCCCCCC[n+]1ccn(CCCC)c1 [Example 11, 1-butyl-3-hexadecylimidazolium bis(trifluoromethanesulfonyl)imide] | highly soluble
CCCCCCCCCC[n+]1ccn(Cc2ccccc2)c1 [Example 13, 1-benzyl-3-decylimidazolium bis(trifluoromethanesulfonyl)imide] | highly soluble
